From the supplement of paper PMC10307832

Key:
Assay in all cases: relative viability (nuclei count vs DMSO), 5 days (fraction); higher = more cells survive
[1] = system: A-427
In short: (§1)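 Medians of duplicate plates are given as relative viability. That measure is the nuclei count in treated wells divided by the count in vehicle wells. Counts were taken on 4× images of lung cancer cell lines in 1536-well plates, 5 days after pin-tool dosing the day after seeding with one drug alone or a fixed anchor-drug dose plus five library-drug doses (not always all listed) in √10 steps.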

[2] = system: COR-L 105
In short: as §1

[3] = system: EKVX
In short: as §1

[4] = system: EMC-BAC-2
In short: as §1

[5] = system: EPLC-272H
In short: as §1

[6] = system: HARA
In short: as §1

[7] = system: HCC-44
In short: as §1

[8] = system: LK-2
In short: as §1

[9] = system: LU99A
In short: as §1

[10] = system: NCI-H1734
In short: as §1

[11] = system: NCI-H1755
In short: as §1

[12] = system: NCI-H1792
In short: as §1

[13] = system: NCI-H1993
In short: as §1

[14] = system: NCI-H2405
In short: as §1

[15] = system: NCI-H358
In short: as §1

[16] = system: NCI-H460
In short: as §1

[17] = system: NCI-H596
In short: as §1

[18] = system: NCI-H647
In short: as §1

[19] = system: RERF-LC-KJ
In short: as §1

`CN1CCN(CCOc2cc(OC3CCOCC3)c3c(Nc4c(Cl)ccc5c4OCO5)ncnc3c2)CC1` [Saracatinib] + C[C@]1(O)C[C@@H](c2nc(-c3ccc4ccc(-c5ccccc5)nc4c3)c3c(N)nccn32)C1 [Linsitinib] (partner 1 µM) gave a relative viability ([1]; first compound 0.02 µM) of 1.03, a relative viability ([1]; first compound 0.2 µM) of 1.08 and a relative viability ([1]; first compound 0.6325 µM) of 1.12. For the same compound, the relative viability ([1]; first compound 2 µM) was 1.11, the relative viability ([2]; first compound 0.02 µM) was 0.872 and the relative viability ([2]; first compound 0.2 µM) was 1.02. For the same compound, the relative viability ([2]; first compound 0.6325 µM) was 0.63, the relative viability ([2]; first compound 2 µM) was 0.58 and the relative viability ([3]; first compound 0.02 µM) was 0.988. For the same compound, the relative viability ([3]; first compound 0.2 µM) was 0.861, the relative viability ([3]; first compound 0.6325 µM) was 0.866 and the relative viability ([3]; first compound 2 µM) was 0.318. For the same compound, the relative viability ([4]; first compound 0.02 µM) was 0.813, the relative viability ([4]; first compound 0.2 µM) was 0.775 and the relative viability ([4]; first compound 0.6325 µM) was 0.642. It also gave a relative viability ([4]; first compound 2 µM) of 0.497, a relative viability ([5]; first compound 0.02 µM) of 1.23 and a relative viability ([5]; first compound 0.2 µM) of 1.28. For the same compound, the relative viability ([5]; first compound 0.6325 µM) was 1.12, the relative viability ([5]; first compound 2 µM) was 1.07 and the relative viability ([6]; first compound 0.02 µM) was 0.917. It also gave a relative viability ([6]; first compound 0.6325 µM) of 0.787, a relative viability ([6]; first compound 2 µM) of 0.629 and a relative viability ([7]; first compound 0.02 µM) of 0.729. It also gave a relative viability ([7]; first compound 0.2 µM) of 0.51, a relative viability ([7]; first compound 0.6325 µM) of 0.823 and a relative viability ([7]; first compound 2 µM) of 0.717. It also gave a relative viability ([8]; first compound 0.02 µM) of 0.52, a relative viability ([8]; first compound 0.2 µM) of 0.484 and a relative viability ([8]; first compound 0.6325 µM) of 0.375. For the same compound, the relative viability ([8]; first compound 2 µM) was 0.3, the relative viability ([9]; first compound 0.02 µM) was 0.575 and the relative viability ([9]; first compound 0.2 µM) was 0.372. For the same compound, the relative viability ([9]; first compound 0.6325 µM) was 0.465, the relative viability ([9]; first compound 2 µM) was 0.411 and the relative viability ([10]; first compound 0.02 µM) was 0.908. For the same compound, the relative viability ([10]; first compound 0.6325 µM) was 0.713, the relative viability ([10]; first compound 2 µM) was 0.751 and the relative viability ([11]; first compound 0.02 µM) was 1. For the same compound, the relative viability ([11]; first compound 0.2 µM) was 0.707, the relative viability ([11]; first compound 0.6325 µM) was 0.95 and the relative viability ([11]; first compound 2 µM) was 0.896. The relative viability ([12]; first compound 0.02 µM) was 0.533, the relative viability ([12]; first compound 0.2 µM) was 0.374 and the relative viability ([12]; first compound 0.6325 µM) was 0.647. For the same compound, the relative viability ([12]; first compound 2 µM) was 0.384, the relative viability ([13]; first compound 0.02 µM) was 0.682 and the relative viability ([13]; first compound 0.2 µM) was 0.715. The relative viability ([13]; first compound 2 µM) was 0.621, the relative viability ([14]; first compound 0.02 µM) was 0.87 and the relative viability ([14]; first compound 0.2 µM) was 0.829. For the same compound, the relative viability ([14]; first compound 0.6325 µM) was 0.466, the relative viability ([14]; first compound 2 µM) was 0.372 and the relative viability ([15]; first compound 0.02 µM) was 0.813. For the same compound, the relative viability ([15]; first compound 0.2 µM) was 0.51, the relative viability ([15]; first compound 0.6325 µM) was 0.403 and the relative viability ([15]; first compound 2 µM) was 0.279. It also gave a relative viability ([16]; first compound 0.02 µM) of 0.716, a relative viability ([16]; first compound 0.2 µM) of 0.664 and a relative viability ([16]; first compound 0.6325 µM) of 0.329. It also gave a relative viability ([16]; first compound 2 µM) of 0.181, a relative viability ([17]; first compound 0.02 µM) of 1.01 and a relative viability ([17]; first compound 0.2 µM) of 0.85. For the same compound, the relative viability ([17]; first compound 0.6325 µM) was 0.877, the relative viability ([17]; first compound 2 µM) was 0.737 and the relative viability ([18]; first compound 0.02 µM) was 1.05. It also gave a relative viability ([18]; first compound 0.2 µM) of 0.943, a relative viability ([18]; first compound 0.6325 µM) of 1.14 and a relative viability ([18]; first compound 2 µM) of 0.514. It also gave a relative viability ([19]; first compound 0.02 µM) of 0.938, a relative viability ([19]; first compound 0.2 µM) of 0.83 and a relative viability ([19]; first compound 0.6325 µM) of 0.883. It also gave a relative viability ([19]; first compound 2 µM) of 0.813.

`Cc1cn(-c2cc(NC(=O)c3ccc(C)c(Nc4nccc(-c5cccnc5)n4)c3)cc(C(F)(F)F)c2)cn1` [Nilotinib] + C[C@]1(O)C[C@@H](c2nc(-c3ccc4ccc(-c5ccccc5)nc4c3)c3c(N)nccn32)C1 [Linsitinib] (partner 1 µM) was tested, and the relative viability ([1]; first compound 0.001 µM) was 1.13, the relative viability ([1]; first compound 0.01 µM) was 1.26 and the relative viability ([1]; first compound 0.03162 µM) was 1.16. The relative viability ([1]; first compound 0.1 µM) was 1.01, the relative viability ([2]; first compound 0.001 µM) was 0.913 and the relative viability ([2]; first compound 0.01 µM) was 1. It also gave a relative viability ([2]; first compound 0.03162 µM) of 0.849, a relative viability ([2]; first compound 0.1 µM) of 0.823 and a relative viability ([3]; first compound 0.001 µM) of 0.866. The relative viability ([3]; first compound 0.003162 µM) was 1.26, the relative viability ([3]; first compound 0.01 µM) was 1.62 and the relative viability ([3]; first compound 0.03162 µM) was 0.955. For the same compound, the relative viability ([3]; first compound 0.1 µM) was 1.09, the relative viability ([4]; first compound 0.001 µM) was 0.812 and the relative viability ([4]; first compound 0.003162 µM) was 0.954. For the same compound, the relative viability ([4]; first compound 0.01 µM) was 1.1, the relative viability ([4]; first compound 0.03162 µM) was 0.66 and the relative viability ([4]; first compound 0.1 µM) was 0.839. For the same compound, the relative viability ([5]; first compound 0.001 µM) was 1.38, the relative viability ([5]; first compound 0.003162 µM) was 1.34 and the relative viability ([5]; first compound 0.01 µM) was 1.42. For the same compound, the relative viability ([5]; first compound 0.03162 µM) was 1.08, the relative viability ([5]; first compound 0.1 µM) was 1.18 and the relative viability ([6]; first compound 0.001 µM) was 0.987. For the same compound, the relative viability ([6]; first compound 0.003162 µM) was 1.37, the relative viability ([6]; first compound 0.01 µM) was 1.3 and the relative viability ([6]; first compound 0.03162 µM) was 0.742. The relative viability ([6]; first compound 0.1 µM) was 0.93, the relative viability ([7]; first compound 0.001 µM) was 0.624 and the relative viability ([7]; first compound 0.003162 µM) was 0.768. For the same compound, the relative viability ([7]; first compound 0.01 µM) was 0.821, the relative viability ([7]; first compound 0.03162 µM) was 0.615 and the relative viability ([7]; first compound 0.1 µM) was 0.739. It also gave a relative viability ([8]; first compound 0.001 µM) of 0.517, a relative viability ([8]; first compound 0.003162 µM) of 0.515 and a relative viability ([8]; first compound 0.01 µM) of 0.442. For the same compound, the relative viability ([8]; first compound 0.03162 µM) was 0.405, the relative viability ([8]; first compound 0.1 µM) was 0.487 and the relative viability ([9]; first compound 0.001 µM) was 0.468. It also gave a relative viability ([9]; first compound 0.003162 µM) of 0.59, a relative viability ([9]; first compound 0.01 µM) of 0.593 and a relative viability ([9]; first compound 0.03162 µM) of 0.568. It also gave a relative viability ([9]; first compound 0.1 µM) of 0.318, a relative viability ([10]; first compound 0.001 µM) of 0.882 and a relative viability ([10]; first compound 0.003162 µM) of 0.977. For the same compound, the relative viability ([10]; first compound 0.01 µM) was 0.972, the relative viability ([10]; first compound 0.03162 µM) was 0.669 and the relative viability ([10]; first compound 0.1 µM) was 0.561. For the same compound, the relative viability ([11]; first compound 0.001 µM) was 1.02, the relative viability ([11]; first compound 0.003162 µM) was 1.15 and the relative viability ([11]; first compound 0.01 µM) was 1.12. For the same compound, the relative viability ([11]; first compound 0.03162 µM) was 1.07, the relative viability ([11]; first compound 0.1 µM) was 0.894 and the relative viability ([12]; first compound 0.001 µM) was 0.334. It also gave a relative viability ([12]; first compound 0.01 µM) of 0.583, a relative viability ([12]; first compound 0.1 µM) of 0.565 and a relative viability ([13]; first compound 0.001 µM) of 0.808. The relative viability ([13]; first compound 0.003162 µM) was 0.74, the relative viability ([13]; first compound 0.01 µM) was 0.702 and the relative viability ([13]; first compound 0.03162 µM) was 0.804. For the same compound, the relative viability ([13]; first compound 0.1 µM) was 0.769, the relative viability ([14]; first compound 0.001 µM) was 0.976 and the relative viability ([14]; first compound 0.003162 µM) was 0.916. For the same compound, the relative viability ([14]; first compound 0.01 µM) was 0.838, the relative viability ([14]; first compound 0.03162 µM) was 0.789 and the relative viability ([14]; first compound 0.1 µM) was 0.74. It also gave a relative viability ([15]; first compound 0.001 µM) of 0.67, a relative viability ([15]; first compound 0.003162 µM) of 0.893 and a relative viability ([15]; first compound 0.01 µM) of 0.847. It also gave a relative viability ([15]; first compound 0.03162 µM) of 0.474, a relative viability ([15]; first compound 0.1 µM) of 0.612 and a relative viability ([16]; first compound 0.001 µM) of 0.586. For the same compound, the relative viability ([16]; first compound 0.003162 µM) was 1.1, the relative viability ([16]; first compound 0.01 µM) was 1.75 and the relative viability ([16]; first compound 0.03162 µM) was 0.319. The relative viability ([16]; first compound 0.1 µM) was 0.507, the relative viability ([17]; first compound 0.003162 µM) was 1.26 and the relative viability ([17]; first compound 0.01 µM) was 1.28. The relative viability ([17]; first compound 0.03162 µM) was 0.812, the relative viability ([18]; first compound 0.001 µM) was 1.13 and the relative viability ([18]; first compound 0.003162 µM) was 1.43. It also gave a relative viability ([18]; first compound 0.03162 µM) of 1.07, a relative viability ([18]; first compound 0.1 µM) of 1.02 and a relative viability ([19]; first compound 0.001 µM) of 0.882. It also gave a relative viability ([19]; first compound 0.003162 µM) of 0.941, a relative viability ([19]; first compound 0.01 µM) of 1.05 and a relative viability ([19]; first compound 0.03162 µM) of 0.853. For the same compound, the relative viability ([19]; first compound 0.1 µM) was 0.917.
